Broadly, the ED50 is the dose that gives a 50% effect, or the effect in half of the subjects.

Counter-ions that a name gives are not always drawn.

For this test, the system named is mechanical allodynia of the post-operative pain model. Briefly: Mechanical allodynia (von Frey filaments) in the post-operative pain model (plantar incision) in rats. In kind it is in vivo. The method, then: The induction of anesthesia in rats was performed with 3% isofluran for veterinary use, employing an Ohmeda vaporizer and an anesthesia chamber. Anesthesia was kept during the surgical operation by a tube which directs the isofluran vapors to the animal's snout. Once the rats were anesthetized, they were laid down in a prone position and their right hind paws were cleaned out with alcohol.
Then, a skin incision in the hindpaw of about 10 mm was made by means of a scalpel, starting about 5 mm from the heel and extending toward the toes. Fascia was located and by means of curve scissors muscle was elevated and a longitudinal incision of about 5 mm was made, thus the muscle origin and insertion remained intact. The skin of the paw was stitched with a suturing stitch with breaded silk (3.0) and the wound was cleaned out with povidone.
The assessment was performed 30 minutes after the administration of product and always 4 hours after the plantar incision. The analysis was carried out evaluating the mechanical allodynia. It was tested using von Frey filaments: Animals were placed in methacrylate cylinders on an elevated surface, with metallic mesh floor perforated in order to apply the filaments. After an acclimation period of about 30 minutes within the cylinders, both hindpaws were stimulated (the injured and the non-injured paw, serving the latter as control), starting with the lowest force filament (0.4 g) and reaching a 15 g filament. The animal's response to pain was manifested by the withdrawal of the paw as a consequence of the painful stimulus caused by a filament.
The efficacy of the combined use of venlafaxine and compound 63.HCl was tested at different doses of compound 63.HCl (5, 10, 20, 40 and 80 mg/kg), while the venlafaxine dose remained constant (2.5 mg/kg). The administrations were performed 3.5 hours after surgery. The treated subjects were tested according to the mechanical allodynia protocol above (FIG. 1).
The efficacy of the combined use of duloxetine and compound 63.HCl was tested at different doses of compound 63.HCl (10, 20, 40 and 80 mg/kg), while the duloxetine dose remained constant (0.625 mg/kg). The administrations were performed 3.5 hours after surgery. The treated subjects were tested according to the mechanical allodynia protocol above (FIG. 2).

For the compound `CNCC[C@H](Oc1cccc2ccccc12)c1cccs1` [Duloxetine, duloxetine], where the note is “FIG. 2, Duloxetine alone, sub-active dose 0.625 mg/kg”, the “effect on mechanical allodynia (analgesia)” value was “non-significant effect”. On to `COc1ccc(C(CN(C)C)C2(O)CCCCC2)cc1` (stereo not shown) [Venlafaxine, venlafaxine], for which, for the setting “FIG. 1, Venlafaxine alone, sub-active dose 2.5 mg/kg”, the “effect on mechanical allodynia (analgesia)” value was “non-significant effect”. With `Cc1cc(OCCN2CCOCC2)nn1-c1ccc2ccccc2c1` [compound 63.HCl, 4-{2-[5-Methyl-1-(naphthalen-2-yl)-1H-pyrazol-3-yloxy]ethyl}morpholine hydrochloride], the “maximum effect (analgesia, mechanical allodynia)” value (FIG. 1, compound 63.HCl alone, 5-80 mg/kg, assessed 30 min after administration, 4 h after plantar incision) is 43%. In addition, the ED50 (Rattus norvegicus, FIG. 2, compound 63.HCl alone, 10-80 mg/kg, read-out: ED50 (analgesia, mechanical allodynia)) was 40 mg/kg.
